The structures appear in SMILES notation. Where a name gives a salt, the structure may show the parent alone.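 The compound was tested at five concentrations on cells cultured in 96-well plates, with a 48-hour exposure period. Abbreviation: GI50, concentration required for 50% inhibition of growth.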 Calls of active or inactive are those of the source. Cut-off read from the data, not from the text of the source: active = GI50 up to about 1.1 µM and inactive = higher.

Some test systems named below: EKVX; OVCAR-8; U-251; Hs-578T; SK-MEL-28; HCT-15; HCC 2998; NCI/ADR-RES; OVCAR-5; KM12; CCRF-CEM; SW-620; K562; T47D; A498; HL-60; NCI-H522; MDA-MB-435; HOP-92; UACC-62.
What all share (experiment): NCI anticancer screen, dose series, 48 h

Take `CC1=NN(c2cccc(Cl)c2)C2(C1=Cc1ccccc1)C(Cl)C(=O)N2c1nc2ccccc2s1` (stereo unspecified): the GI50 in the assay on EKVX is 33.9 µM (inactive); in the assay with OVCAR-8, 32.1 µM (inactive); in the assay with U-251, 14.1 µM (inactive); in the assay on Hs-578T, 23.2 µM (inactive); in the assay with SK-MEL-28, 27.2 µM (inactive); in the assay with HCT-15 it was 15.9 µM. For the same compound, the GI50 is 17.3 µM (inactive) in the assay with HCC 2998; 20.4 µM (inactive) in the assay with NCI/ADR-RES; 21.3 µM (inactive) with OVCAR-5; 17.3 µM (inactive) in the assay with KM12; 22.1 µM (inactive) in the assay with CCRF-CEM; 19.8 µM (inactive) with SW-620. Further, the GI50 in the assay on K562 is 19.1 µM (inactive); in the assay with T47D, 18.5 µM (inactive); in the assay with A498, 18.2 µM (inactive); with HL-60 it was 22.1 µM (inactive); with NCI-H522, 16.8 µM (inactive); in the assay with MDA-MB-435 it was 19.3 µM (inactive). Also, the GI50 in the assay on HOP-92 was 9.14 µM (inactive).

On to `C[Si](C)(C)C#CCO[Si](C)(C)C`, for which the GI50 in the assay on EKVX is 97.9 µM (inactive); with OVCAR-8, 36.3 µM (inactive); in the assay with UACC-62, 56.5 µM (inactive); with U-251 it was > 100 µM (inactive); with Hs-578T, > 100 µM (inactive); in the assay with SK-MEL-28 it was > 75.3 µM (inactive). In addition, the GI50 is above 79.8 µM in the assay on HCT-15; > 100 µM (inactive) in the assay with HCC 2998; > 100 µM (inactive) with NCI/ADR-RES; > 100 µM (inactive) with OVCAR-5; > 50.4 µM (inactive) with KM12; 5.69 µM (inactive) in the assay on CCRF-CEM. In addition, the GI50 in the assay with SW-620 is 37.8 µM (inactive); in the assay on K562, 30.9 µM (inactive); with T47D, > 70.6 µM (inactive); with A498, > 100 µM (inactive); with HL-60 it was 31.5 µM (inactive); with NCI-H522, 15.9 µM (inactive). In addition, the GI50 in the assay with MDA-MB-435 is > 61.4 µM (inactive); in the assay with HOP-92 it was 18.2 µM (inactive).

On to `O=C1O[C@]2(c3ccccc3)C(c3ccccc3)=C[C@]2(C(=O)c2ccccc2)C1=O`, for which the GI50 is 34 µM (inactive) in the assay with EKVX; 29.8 µM (inactive) in the assay with OVCAR-8; 29.8 µM (inactive) in the assay on UACC-62; 31.6 µM (inactive) with U-251; 39.2 µM (inactive) in the assay with Hs-578T; 35.6 µM (inactive) in the assay on SK-MEL-28. Moreover, the GI50 in the assay on HCT-15 is 29.5 µM; with HCC 2998 it was 20.3 µM (inactive); with NCI/ADR-RES, 31.6 µM (inactive); in the assay on OVCAR-5 it was > 100 µM (inactive); in the assay with KM12, 35.8 µM (inactive); in the assay on SW-620, 19.1 µM (inactive). The GI50 in the assay on K562 was 23 µM (inactive); in the assay on T47D, 1.12 µM (inactive); with A498 it was 35.5 µM (inactive); in the assay on HL-60, 5.98 µM (inactive); in the assay on NCI-H522, 21.1 µM (inactive); in the assay with MDA-MB-435, 37.2 µM (inactive). Moreover, the GI50 in the assay on HOP-92 is 24 µM (inactive).

Take `COC(=O)[C@H]1[C@H](C(=O)OC)[C@@H](C)c2c(ccc3c2[nH]c2ccccc23)[C@@H]1C`: the GI50 in the assay on EKVX was 69.8 µM (inactive); in the assay on OVCAR-8, 46.3 µM (inactive); in the assay on UACC-62, > 100 µM (inactive); in the assay with U-251, 62.1 µM (inactive); with Hs-578T, 31.1 µM (inactive); in the assay on SK-MEL-28 it was > 100 µM (inactive). For the same compound, the GI50 in the assay on HCT-15 is above 100 µM; with NCI/ADR-RES, > 100 µM (inactive); with OVCAR-5 it was > 100 µM (inactive); in the assay on KM12, 32.9 µM (inactive); in the assay on CCRF-CEM, 22.4 µM (inactive); in the assay with SW-620, 95.1 µM (inactive). In addition, the GI50 in the assay with K562 is 0.9 µM (active); with T47D it was 13 µM (inactive); in the assay on A498 it was > 100 µM (inactive); in the assay on HL-60, 5.81 µM (inactive); in the assay with NCI-H522 it was 41.5 µM (inactive); in the assay with MDA-MB-435, > 100 µM (inactive). Besides, in the assay with HOP-92, the GI50 was 37.9 µM (inactive).

With `COc1ccc2cc(-c3nc(N)nc(N4N=C(C)CC4(C)C)n3)c(=N)oc2c1`, the GI50 in the assay with EKVX is 26.2 µM (inactive); in the assay with OVCAR-8 it was 23 µM (inactive); in the assay with UACC-62, 17.6 µM (inactive); in the assay on U-251, 18.8 µM (inactive); with Hs-578T, 23.2 µM (inactive); with SK-MEL-28, 16.9 µM (inactive). Besides, the GI50 in the assay with HCT-15 was 14.8 µM; with HCC 2998, 17.9 µM (inactive); in the assay with NCI/ADR-RES it was 31.4 µM (inactive); with OVCAR-5 it was 18.7 µM (inactive); in the assay on KM12, 15.9 µM (inactive); in the assay with CCRF-CEM, 16.1 µM (inactive). In addition, the GI50 was 16.4 µM (inactive) in the assay with K562; 15.4 µM (inactive) with T47D; 32.3 µM (inactive) in the assay with A498; 19.9 µM (inactive) with HL-60; 13.5 µM (inactive) in the assay with NCI-H522; 18.5 µM (inactive) in the assay with MDA-MB-435. Moreover, in the assay on HOP-92, the GI50 is 19.7 µM (inactive).

As for `O=C1c2ccccc2C(=O)N1CCCCNOCCCN1C(=O)c2ccccc2C1=O`, the GI50 in the assay on EKVX, with OVCAR-8, in the assay on UACC-62, in the assay with U-251, in the assay with Hs-578T and in the assay with SK-MEL-28 was > 100 µM (inactive) throughout. The GI50 with HCT-15 was above 100 µM; with HCC 2998 it was > 100 µM (inactive); in the assay on NCI/ADR-RES, > 100 µM (inactive); with OVCAR-5 it was > 100 µM (inactive); in the assay on KM12, > 100 µM (inactive); in the assay on CCRF-CEM, > 100 µM (inactive). For the same compound, the GI50 with SW-620, in the assay on K562, with T47D, with A498, with NCI-H522 and with MDA-MB-435 was > 100 µM (inactive) each time. In addition, the GI50 in the assay with HOP-92 was > 100 µM (inactive).

`CC(=O)/N=C1/N(/C=C2\C(=O)Oc3ccccc3C2=O)C(=O)/C(=C/c2cccc(Cl)c2Cl)N1C`: the GI50 in the assay on EKVX is 28.9 µM (inactive); with OVCAR-8, 19.7 µM (inactive); with UACC-62, 31 µM (inactive); in the assay with U-251, 23.1 µM (inactive); with Hs-578T, 3.87 µM (inactive); with SK-MEL-28 it was 29 µM (inactive). For the same compound, the GI50 in the assay with HCT-15 is 9.82 µM; in the assay with HCC 2998, 16.7 µM (inactive); in the assay with NCI/ADR-RES, 22.5 µM (inactive); in the assay on OVCAR-5, 30.3 µM (inactive); with KM12, 26.7 µM (inactive); in the assay with CCRF-CEM, 11.1 µM (inactive). The GI50 is 29.9 µM (inactive) with SW-620; 10.7 µM (inactive) in the assay on K562; 32.1 µM (inactive) with T47D; 4.68 µM (inactive) with A498; 3.99 µM (inactive) with HL-60; 18.2 µM (inactive) in the assay on NCI-H522. For the same compound, the GI50 is 25.6 µM (inactive) with MDA-MB-435 and 0.0333 µM (active) in the assay on HOP-92.

In the case of `CC(C)(C)c1nc2c(o1)C(=O)c1ccccc1C2=O`, the GI50 in the assay with EKVX was 2.68 µM (inactive); in the assay on OVCAR-8, 0.92 µM (active); in the assay on UACC-62, 0.653 µM (active); in the assay with U-251, 1.72 µM (inactive); in the assay with Hs-578T, 0.927 µM (active); in the assay with SK-MEL-28 it was 1.95 µM (inactive). The GI50 in the assay with HCT-15 was 2.48 µM; in the assay with HCC 2998, 4.25 µM (inactive); with NCI/ADR-RES, 0.447 µM (active); in the assay on OVCAR-5, 2.38 µM (inactive); with KM12, 2.75 µM (inactive); with CCRF-CEM it was 1.47 µM (inactive). Also, the GI50 is 1.58 µM (inactive) with SW-620; 0.834 µM (active) in the assay on K562; 0.627 µM (active) with T47D; 6.21 µM (inactive) in the assay on A498; 0.718 µM (active) in the assay with HL-60; 1.43 µM (inactive) in the assay with NCI-H522. For the same compound, the results for the GI50 in the assay with MDA-MB-435 and in the assay on HOP-92 were 0.185 µM (active) and 3.05 µM (inactive), respectively.

As for `CC(C)(C)C(=O)OC(N)/C=C/c1ccccc1` (stereo unspecified), the GI50 in the assay with EKVX, in the assay on OVCAR-8, in the assay on UACC-62, in the assay with U-251, in the assay with Hs-578T and in the assay on SK-MEL-28 was > 100 µM (inactive) throughout. Besides, the GI50 is above 100 µM with HCT-15; > 100 µM (inactive) in the assay with HCC 2998; > 100 µM (inactive) with NCI/ADR-RES; > 100 µM (inactive) in the assay with OVCAR-5; > 100 µM (inactive) with KM12; > 100 µM (inactive) in the assay with CCRF-CEM. Further, the GI50 in the assay with SW-620 is > 100 µM (inactive); in the assay with T47D, > 100 µM (inactive); in the assay with A498, > 100 µM (inactive); with HL-60, 76.2 µM (inactive); in the assay on NCI-H522, > 100 µM (inactive); with MDA-MB-435 it was > 100 µM (inactive). The GI50 in the assay with HOP-92 was > 100 µM (inactive).

Turning to `C=C1C[C@@H]2CC[C@@]34C[C@H]5O[C@H]6[C@@H](O3)[C@H]3O[C@H](CC[C@@H]3O[C@H]6[C@H]5O4)CC(=O)C[C@@H]3[C@@H](OC)[C@@H](C[C@H](O)CN)O[C@H]3C[C@H]3O[C@@H](CC[C@@H]1O2)C[C@@H](C)C3=C` [ERIBULIN MESYLATE], the GI50 with EKVX is 0.007 µM (active); in the assay on OVCAR-8, 0.00598 µM (active); with UACC-62 it was 0.000711 µM (active); with U-251, 0.00134 µM (active); with Hs-578T it was 0.0022 µM (active); in the assay with SK-MEL-28, 0.00361 µM (active). In addition, the GI50 in the assay on HCT-15 is 0.053 µM; with HCC 2998, 0.00201 µM (active); in the assay with NCI/ADR-RES, 0.294 µM (active); with KM12, 0.000326 µM (active); with SW-620, 0.00241 µM (active); in the assay on K562, 0.000916 µM (active). Moreover, the GI50 is < 0.0001 µM (active) in the assay with T47D; 0.00434 µM (active) in the assay on A498; 0.00025 µM (active) in the assay on NCI-H522; 5.96e-05 µM (active) with MDA-MB-435; 0.00352 µM (active) with HOP-92.
